In the assay the target is T1, apo-D-amino acid oxidase (Sus scrofa, UniProt P00371).
T1 construct: Apo-D-amino acid oxidase extracted and purified from the porcine kidneys is known and can be suitably used; purchased Calzyme Inc. 176A0025
T1 sequence (P00371 whole entry): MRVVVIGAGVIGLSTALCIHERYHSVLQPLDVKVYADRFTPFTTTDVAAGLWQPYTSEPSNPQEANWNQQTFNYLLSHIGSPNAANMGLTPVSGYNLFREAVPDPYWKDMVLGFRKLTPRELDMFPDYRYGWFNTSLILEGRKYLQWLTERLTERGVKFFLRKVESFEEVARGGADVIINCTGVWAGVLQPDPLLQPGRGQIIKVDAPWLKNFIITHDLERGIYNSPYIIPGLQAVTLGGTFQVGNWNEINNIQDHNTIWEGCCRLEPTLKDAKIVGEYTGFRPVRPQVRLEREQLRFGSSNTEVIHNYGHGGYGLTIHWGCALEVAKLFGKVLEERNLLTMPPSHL
Put plainly: Comparison of reactivity between various D-amino acids as substrates of FAD-reactivated apo-D-amino acid oxidase (peroxidase/DA-64 colorimetric, Hitachi 7170). The class given is biochemical, porcine. Particulars: 5 mM D-amino acid in reagent 1, 50 mM Tris-HCl pH 8.3; 10 U/ml apo-D-amino acid oxidase, FAD sample; 700 nm; D-valine = 100. On the procedure:
Reagent 1 containing 50 mM Tris-HCl (pH 8.3), 5 mM DA-64 (Wako Pure Chemical Industries), and 5 mM D-amino acid, reagent 2 containing 10 U/ml apo-D-amino acid oxidase (Calzyme Inc., Catalog No. 176A0025) and 5 U/ml peroxidase, and aqueous FAD solution as a sample were applied to a Hitachi 7170 automated analyzer at a setting of two-point end-mode and using a parameters of 7 μl for a sample, 180 μl for R1, 90 μl for R2, and 700 nm for a wavelength for determination.
As in 1), the activity of the reconstituted apoenzyme was confirmed. Assays only varying types of the D-amino acids were then performed. As D-amino acids, D-forms of Ala, Met, Val, Ile, Phe, Pro, Ser, Thr, Asn, Leu, Tyr, Trp, Asp, Glu, His, and Arg were each used. The percent reactivities of the above-mentioned various D-amino acids were calculated to the value of D-valine which was defined as 100.
On to `C[C@@H](N)C(=O)O` [D-Ala], for which the “percent reactivity of D-amino acid (relative to D-valine defined as 100)” value worked out at 136%.

`CC(C)C[C@@H](N)C(=O)O` [D-Leu]: the “percent reactivity of D-amino acid (relative to D-valine defined as 100)” value was found to be 97%.

Regarding `O=C(O)[C@H]1CCCN1` [D-Pro, D-proline], the “percent reactivity of D-amino acid (relative to D-valine defined as 100)” value was determined as 374%.

For the compound `N[C@H](Cc1c[nH]c2ccccc12)C(=O)O` [D-Trp], the “percent reactivity of D-amino acid (relative to D-valine defined as 100)” value was 14%.

In the case of `N[C@H](Cc1ccc(O)cc1)C(=O)O` [D-Tyr, D-tyrosine], the “percent reactivity of D-amino acid (relative to D-valine defined as 100)” value is listed as 159%.

As for `N[C@H](Cc1ccccc1)C(=O)O` [D-Phe], the “percent reactivity of D-amino acid (relative to D-valine defined as 100)” value is 170%.

Take `CSCC[C@@H](N)C(=O)O` [D-Met]: the “percent reactivity of D-amino acid (relative to D-valine defined as 100)” value turned out to be 322%.

Turning to `CC[C@@H](C)[C@@H](N)C(=O)O` [D-Ile], the “percent reactivity of D-amino acid (relative to D-valine defined as 100)” value is 178%.

On to `CC(C)[C@@H](N)C(=O)O` [D-Val, D-valine], for which the “percent reactivity of D-amino acid (relative to D-valine defined as 100)” value is recorded as 100%.

Regarding `NC(N)=NCCCC(N)C(=O)O` [D-Arg], the “percent reactivity of D-amino acid (relative to D-valine defined as 100)” value is given as 8%.

`N[C@H](CO)C(=O)O` [D-Ser]: the “percent reactivity of D-amino acid (relative to D-valine defined as 100)” value is reported as 117%.

These data come from patent US7759072B2, “Immunoassay method and reagent therefor” (Sekisui Medical Co., Ltd., priority 2005, dated 2010).
